Experimental data reported in patent US20150359757A1, “A METHOD FOR IMPROVING THE WELLBEING OF AN ANIMAL USING A COMPOSITION INCLUDING VITAMIN K” (priority 2013, published 2015).

Legend:
turkeys = assay: Turkey feeding experiment, Example 8; type: in vivo
Protocol: An experiment was conducted in turkeys. In this experiment all diets used in this study were identical in nutrients, the only difference being that the control diets contained 4 gm/tonne K3 and the experimental diet contained the formulated vitamin KQ at 580 mg/tonne or per 1000 L.
Three groups of 5000 turkeys (15000 turkeys per farm) were used. In the control groups 1 and 3 were fed Vitamin K3 (4 gm/tonne of food). Experimental group 2 was fed Vitamin KQ (580 mg formulated K1/K2/Example 2/tonne of food). 200 turkeys from each group were then weighed at 10 weeks.

chickens (broilers) = assay: Broiler chicken feeding experiment, Example 11; type: in vivo
Protocol: An experiment was conducted with chickens (broilers). 41,000 chickens were in a control group and were fed 4 gm/tonne vitamin K3. 41,000 thickens were in an experimental group and fed on experimental diet of 580 mg of Vitamin KQ (Example 2) formulated per tonne of food. Results were determined after the chickens were 30 days old.

layer hens = assay: Caged layer fatigue, X-ray bone density in layer hens, Example 12; type: in vivo
laying birds = assay: Old laying birds feeding experiment, Example 14; type: in vivo
Protocol: An experiment was conducted with old laying birds aged 21 weeks. 20,000 birds were given 580 mg formulated vitamin KQ/tonne of food (Example 2), instead of the control diet of 4 gm/tonne Vitamin K3.

chickens = assay: Chickens hatched from breeder layer eggs, bone density and bone ash, Example 15; type: in vivo
Protocol: An experiment was conducted with laying birds and broilers: • A) Chickens hatched from the breeder layer eggs (fed 580 mg/tonne of formulated vitamin KQ) contained 50-100 ug Vitamin K1 per egg from day 1 (Example 2); • B) Chickens hatched from the breeder layer eggs were fed 4 gm/tonne vitamin K3 from day 1 contained 4-10 ug vitamin K1 per egg from day 1.
1000 chickens from each group were slaughtered at day 35 and X-rayed.

ducks = assay: Duck rearing/fattening trial, Example 16; type: in vivo; conditions: up until the 10th week, KQ 580 mg or K3 4 gm per 1000 L water
Protocol: An experiment was conducted with ducks. In the duck's rearing/fattening a similar experience was found as with chickens and turkeys with respect to observations of weight, welfare and behaviour. Duration of trial: 16 weeks • Age: Supplemented from day 7 onwards • Amount: 7,500 birds • Experimental Group: 3,500 birds • Control Group: 4,000 birds • Dosage: Treatment 580 mg KQ per 1000 L water (Example 2). Control 4 gm vitamin K3 per 1000 L water • Dosage given for 24 hours 3× per week.

animals = conditions: cited from earlier work
prothrombin synthesis = conditions: in animals; cited from earlier work
[1] = tested on: calcium transfer from luman-blood; conditions: chickens, 2.5 umole of menadione/kg (430 ugK3/Kg bwt.); cited from earlier work
[2] = complete feed formulation of multivitamins, choline chloride and trace mineral premix; room temperature; 4 months; cited from earlier work
[3] = from vegetable sources, humans; cited from earlier work
[4] = tested on: carboxylation of endogenous precursors; conditions: cited from earlier work

Structure (SMILES): CC1=CC(=O)c2ccccc2C1=O [Vitamin K3, menadione]
- E. coli / colibacillus infection (observation) (turkeys; turkeys): colibacillus infection was evident
- weight deviation (turkeys; turkeys at 10 weeks, K3 4 gm/tonne of food): up to 1.2 kg
- average weight (turkeys; turkeys at 10 weeks, KQ 580 mg/tonne, K3 4 gm/tonne of food): 6.97 kg
- Dropsy (chickens (broilers); broilers): 0.36%
- Marketable animals according an official poultry meat inspector (chickens (broilers); broilers): 95.25%
- Marketable feet A quality (chickens (broilers); broilers): 81.37%
- Skin infections (chickens (broilers); broilers): 3.65%
- birds with broken bones at slaughter (chickens (broilers); of 41,000 birds slaughtered): 3200 birds
- Change % of RBAE bone density (layer hens; Day 27 to Day 35, 250 ug/bird/day): −5.4%
- effect on bone growth / strength (observation) (layer hens; layer hens): deceased bone growth
- effect on caged layer fatigue (loss of bone density) (layer hens; layer hens): failed to prevent the disease
- bone density as RBAE (Radiographic bone aluminium equivalents), Day 27 (layer hens; layer hens, 250 ug/bird/day, Day 27): 3.85 mm
- bone density as RBAE (Radiographic bone aluminium equivalents), Day 35 (layer hens; layer hens, 250 ug/bird/day, Day 35): 3.64 mm
- eggs per day (laying birds; 20,000 birds, KQ 580 mg/tonne, K3 4 gm/tonne of food): 14,800 eggs per day
- % eggs layed (laying birds; age of layers 2 weeks): 92%
- % eggs layed (laying birds; age of layers 21 weeks): 92%
- % eggs layed (laying birds; age of layers 60 weeks): 74%
- % eggs layed (laying birds; age of layers 90 weeks): 54%
- bone density as RBAE (Radiographic bone aluminium equivalents), Day 35 (chickens; chickens hatched from breeder layer eggs, slaughtered at day 35, K3 4 gm/tonne, KQ 580 mg/tonne of feed): 3.64 mm
- Bone Ash (chickens; chickens slaughtered at day 35): 35%
- bone ash relative to that of Vitamin KQ (chickens; day 35): 83%
- bone density relative to that of Vitamin KQ (chickens; day 35): 60%
- feather picking (observation) (ducks): extensive feather picking
- dose at which toxic levels are reached (animals; animals): 0.5 mg/kg
- more toxic than vitamin K1 (animals; relative to vitamin K1): at least 50 ×
- effect on prothrombin synthesis, times lower (prothrombin synthesis): approximately 100 times
- duration of inhibition of calcium transfer [1]: 6 to 10 h
- time to inhibition of calcium transfer [1]: ≤ 30 min

Structure (SMILES): CC1(S(=O)(=O)O)CC(=O)c2ccccc2C1=O.Cc1cc(C)[nH]c(=O)n1 (stereo not drawn) [MPB, menadione dimethyl-pyrimidol bisulphite]
- retained (stability) [2]: 57%

Structure (SMILES): CC1=C(C/C=C(\C)CCC[C@H](C)CCC[C@H](C)CCCC(C)C)C(=O)c2ccccc2C1=O [vitamin K1, phylloquinone]
- bioavailability [3]: 4.7-15%
- dose consumed that does not result in any toxicity (animals; animals): 25 gm/kg
- relative activity versus menadione Vitamin K3 [4]: 4 times

Structure (SMILES): CC1(S(=O)(=O)[O-])CC(=O)c2ccccc2C1=O.[Na+] (stereo not drawn) [MSB, menadione sodium bisulphite]
- retained (stability) [2]: 33%
